Source: patent US4550186A, “Binuclear copper (II) carboxylates formed from amine-carboxyboranes” (Duke University, priority 1983, dated 1985)

Tests used:
[1] = system: CF1 male mice on atherogenic diet; assay: Testing in atherogenic mice; type: in vivo, mouse; conditions: 12 days
Method: CF1 male mice (~25 g) were placed on a commercial diet (the U.S. Biochemical Corporation Basel Atherogenic Test Diet) which contained butterfat (400 g), celufil (cellulose; 60 g), cholesterol (53 g), choline dihydrogen citrate (4 g), salt mixture oil (Wesson; 40 g), sodium cholate (20 g), sucrose (223 g), vitamin free casein (200 g) and total vitamin supplement for 10 days. After the cholesterol and triglyceride levels were assayed and observed to be elevated, the mice were administered test drugs at 10 mg/kg/day intraperitoneally for an additional 12-day period. Serum cholesterol and triglyceride levels were measured after 12 days of administration of the drugs.

Acetyl CoA synthetase = assay: In vitro liver enzyme study: acetyl CoA synthetase; type: biochemical, mouse; conditions: in vitro CF1 liver, 30 min
Method: (§1) In vitro enzymatic studies were determined using 10% homogenates of CF1 male mouse liver with 50-200 μM of test drugs. In vivo enzymatic studies were determined using 10% homogenates of liver from CF1 male mice obtained after administering the agents for 16 days at a dose ranging from 2.5-20 mg/kg/day intraperitoneally. The liver homogenates for both in vitro and in vivo studies were prepared in 0.25M sucrose and 0.001M (ethylenedinitrilo)tetraacetic acid. Acetyl coenzyme A synthetase and adenosine triphosphate dependent citrate lyase activities were determined spectrophotometrically at 540 nm as the hydroxylamate of acetyl coenzyme A formed after 30 min at 37° C. Mitochondrial citrate exchange was determined by the procedure of Robinson et al [Eur. J. Biochem., 216, 63 (1970)] using ^14 C-sodium bicarbonate (41 mCi/mmol) incorporated into mitochondrial ^14 C-citrate after isolating rat mitochondria (9000 g×10 min) from the homogenates. The exchanges of the ^14 C-citrate were determined after incubating the mitochondrial fraction which was loaded with labeled citrate and test drugs for 10 min. Then the radioactivity was measured in the mitochondrial and supernantant fractions in scintillation fluid and expressed as a percentage. Cholesterol side chain oxidation was determined by the method of Kritchevsky and Tepper [Artherosclerosis, 18, 93 (1973)] using (26-^14 C) cholesterol (50 mCi/mmol) and mitochondria isolated from rat liver homogenates. […] Fatty acid synthetase activity was determined by the method of Brady et al [J. Biol. Chem., 235, 3093 (1960)] using [2-^14 C] malonyl-coenzyme A (37.5 mCi/mmol) which was incorporated into newly synthesized fatty acids that were extracted with ether and counted. Acyl transferase activity was determined with glycerol-3phosphate [L-2-^3 H(N)] […] HCl and counted. Phosphatidate phosphohydrolase activity was measured as the inorganic phosphate released after 30 min from phosphatidic acid by the method of Mavis et al [J. Lipid Res., 19, 467 (1978)]. […]

[2] = system: sn-Glycerol 3-phosphate Acyl Transferase; assay: In vivo liver enzyme study: sn-glycerol 3-phosphate acyl transferase; design: species or system mouse; conditions: CF1 liver after 16 days i.p.
Method: as §1

[3] = system: Ehrlich ascites carcinoma; assay: Ehrlich ascites carcinoma growth in CF1 male mice; type: in vivo, mouse; conditions: for No. of Animals Survived on Day 10: 6 animals; for Ascrit Packed Cell Vol. / Vol(ml) Ascites Fluid: Day 10; for Percent Inhibition: Ehrlich ascites carcinoma growth
Method: CF1 male mice (~30 g) were implanted with 2×10^6 Ehrlich ascites tumor cells, intraperitoneally on Day 0. Compound I was suspended by homogenation in 0.05% polysorbate.80-water and administered intraperitoneally at 10 and 20 mg/kg for 9 days to determine its effectiveness for inhibition of tumor growth. Mice were sacrificed on Day 10, and the ascites fluid was collected from the peritoneal cavity. The volume and ascrit (packed cell volume) were determined for each animal and the percent inhibition of tumor growth was calculated. For the metabolic studies, mice were treated on Days 8 and 9 with 10 mg/kg of Compound I, intraperitoneally. The animal was sacrificed on Day 10 and the ascites fluid harvested. The in vitro metabolic studies were performed at […] final concentration of Compound I.

For “{Cu[(CH3)3 N.BH2 CO2 ]2.(CH3)3 N.BH2 COOH} [Compound I]”, the “serum cholesterol level after drug administration” value ([1]; hyperlipidemic induced mice (354 mg % before)) was 148 mg %, the “serum cholesterol levels reduced” value ([1]; hyperlipidemic induced mice, 10 mg/kg/day i.p.) was 59% and the “serum triglyceride levels lowered” value ([1]; hyperlipidemic mice, 10 mg/kg/day i.p.) was 67%. The “Acetyl CoA synthetase” value (Acetyl CoA synthetase; 50 μM) was 104 ± 5 Percent Control, the “Acetyl CoA synthetase” value (Acetyl CoA synthetase; 100 μM) was 87 ± 4 Percent Control and the “Acetyl CoA synthetase” value (Acetyl CoA synthetase; 200 μM) was 84 ± 5 Percent Control. For the same substance, the “sn-Glycerol 3-phosphate Acyl Transferase” value ([2]; 2.5 mg/kg) was 95 ± 6% of control, the “sn-Glycerol 3-phosphate Acyl Transferase” value ([2]; 5.0 mg/kg) was 95 ± 7% of control and the “sn-Glycerol 3-phosphate Acyl Transferase” value ([2]; 10 mg/kg) was 119 ± 7% of control. For the same substance, the “No. of Animals Survived on Day 10” value ([3]; 10 mg/kg/day i.p.) was 5, the “Ascrit Packed Cell Vol.” value ([3]; 10 mg/kg/day i.p.) was 18.5 and the “Vol(ml) Ascites Fluid” value ([3]; 10 mg/kg/day i.p.) was 0.04 mL. The “Percent Inhibition” value ([3]; 10 mg/kg/day i.p.) was 99.7%, the “No. of Animals Survived on Day 10” value ([3]; 20 mg/kg/day i.p.) was 6 and the “Ascrit Packed Cell Vol.” value ([3]; 20 mg/kg/day i.p.) was 34.0. For the same substance, the “Vol(ml) Ascites Fluid” value ([3]; 20 mg/kg/day i.p.) was 0.32 mL and the “Percent Inhibition” value ([3]; 20 mg/kg/day i.p.) was 96.2%.
